pIC50: −log10 of the molar value. Where two headings read alike, the source gives them in different places.
Tests used:
TXA2 receptor = target: T1, TXA2 receptor (Homo sapiens, UniProt P21731); experiment: Binding activity to TXA2 receptor ([3H](+)-S-145 sodium salt, human platelet membrane fraction)
T1 construct: The human platelet membrane fraction was prepared in accordance with Experiment 1 (1); from tissue; host or cells: human platelet membrane fraction from blood of healthy volunteers
T1 sequence (P21731 1-343): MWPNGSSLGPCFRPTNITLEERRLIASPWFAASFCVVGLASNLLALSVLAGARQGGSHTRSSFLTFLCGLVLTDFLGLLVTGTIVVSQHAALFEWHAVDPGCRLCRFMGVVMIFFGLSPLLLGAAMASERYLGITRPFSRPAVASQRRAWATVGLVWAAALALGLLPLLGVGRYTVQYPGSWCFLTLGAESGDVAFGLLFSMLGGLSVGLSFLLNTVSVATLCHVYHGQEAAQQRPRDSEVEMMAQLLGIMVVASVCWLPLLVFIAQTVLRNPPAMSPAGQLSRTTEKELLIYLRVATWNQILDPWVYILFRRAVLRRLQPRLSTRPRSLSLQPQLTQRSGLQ
Description: Experiment 2 Binding Activity to TXA2 Receptor
(§1) (1) Preparation of Human Platelet Membrane Fraction
The human platelet membrane fraction was prepared in accordance with Experiment 1 (1).
(2) Binding to TXA2 Receptor
To a binding-reaction solution (50 mM Tris/HCl, pH 7.4, 10 mM MgCl2) (0.2 ml) were added the human platelet membrane fraction (0.05 mg) and 2 nM Sodium [^3H](+)-(5Z)-7-[3-endo-[(phenylsulfonyl)amino]bicyclo[2.2.1]hept-2-exo-yl]heptenoate (Japanese Patent Publication (Kokoku) No.79060/1993, hereinafter referred to as (+)-S-145 sodium salt) (26.4 Ci/mmol), and the mixture was reacted at room temperature for 90 min. After the reaction, the resultant mixture was filtered through a glass fiber filter paper and washed several times with cooled physiological saline, then the radioactivity retained on the filter paper was measured. The specific-binding ratio was calculated by subtracting the non-specific binding ratio (the radio activity similarly determined in the presence of 10 μM (+)-S-145 sodium salt) from the total binding. The inhibitory activity of each compound was expressed as the concentration required for 50% inhibition (IC50), which was determined by depicting a substitution curve by plotting the binding ratio (%) in the presence of each compound, where the binding ratio in the absence of a test compound is 100%.

PGD2 receptor [1] = target: T2, PGD2 receptor (Homo sapiens, UniProt Q13258); experiment: Antagonistic activity against PGD2 receptor using human platelet (inhibition of PGD2-induced cAMP increase); format: cell-based
T2 construct: A suspension adjusted to contain the platelets at a final concentration of 5×10^8/ml was warmed at 37° C; endogenous in cells; host or cells: washed human platelets from a healthy volunteer
T2 sequence (Q13258 1-359): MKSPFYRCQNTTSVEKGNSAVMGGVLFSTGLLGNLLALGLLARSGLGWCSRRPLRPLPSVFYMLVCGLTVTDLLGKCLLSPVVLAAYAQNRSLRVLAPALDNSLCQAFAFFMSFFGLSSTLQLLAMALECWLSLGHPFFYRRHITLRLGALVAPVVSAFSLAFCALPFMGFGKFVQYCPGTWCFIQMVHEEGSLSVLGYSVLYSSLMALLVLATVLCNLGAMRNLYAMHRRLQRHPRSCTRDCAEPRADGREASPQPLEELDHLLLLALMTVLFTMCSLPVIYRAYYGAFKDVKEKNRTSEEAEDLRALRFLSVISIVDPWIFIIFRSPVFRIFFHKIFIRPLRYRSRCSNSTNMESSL
Description: Experiment 3 Evaluation of Antagonistic Activity Against PGD2 Receptor
Receptor Using Human Platelet
Peripheral blood was collected from a healthy volunteer using a syringe in which 1/9 volume of a citric acid/dextrose solution was previously added. The sample was subjected to centrifugation at 1200 rpm for 10 min to obtain the supernatant (PRP: platelet rich plasma). The resultant PRP was washed 3 times with a washing buffer and the number of platelets was counted with a micro cell counter. A suspension adjusted to contain the platelets at a final concentration of 5×10^8/ml was warmed at 37° C., then subjected to the pre-treatment with 3-isobutyl-1-methylxanthine (0.5 mM) for 5 min. To the suspension was added a test compound diluted at various concentration, and 10 minutes later, 0.1 μM PGD2 was added to induce the reaction 2 minutes later, hydrochloric acid was added to terminate the reaction. The platelet was destroyed with an ultrasonic homogenizer. After centrifugation, the cAMP in the supernatant was determined by radioimmunoassay. PGD2 receptor antagonism of a drug was evaluated as follows: the inhibition rate regarding cAMP increased by the addition of PGD2 was determined at each concentration, and the concentration of the drug required for 50% inhibition (IC50) was calculated.

PGD2 receptor [2] = target: T2, PGD2 receptor; experiment: Binding activity to PGD2 receptor ([3H]PGD2, human platelet membrane fraction)
Description: Experiment 1 Binding Activity to PGD2 Receptor
as §1
Blood was collected using a plastic syringe containing 3.8% sodium citrate from the vein of healthy volunteers (adult male and female), then put into a plastic test tube and mixed by slow-reversion. The sample was then centrifuged at 1800 rpm, for 10 min at room temperature, and the supernatant containing PRP (platelet-rich plasma) was collected. The PRP was re-centrifuged at 2300 rpm, for 22 min at room temperature to obtain platelets. The platelets were homogenized using a homogenizer (Ultra-Turrax) followed by centrifugation 3 times at 20,000 rpm, 10 min at 4° C. to obtain a platelet membrane fraction. After protein determination, the membrane fraction was adjusted to 2 mg/ml and preserved in a refrigerator at −80° C. until using for the binding test.
(2) Binding to PGD2 Receptor
To a binding-reaction solution (50 mM Tris/HCl, pH 7.4, 5 mM MgCl2) (0.2 ml) were added the human platelet membrane fraction (0.1 mg) and 5 nM [^3H]PGD2 (115 Ci/mmol), and the mixture was reacted at 4° C. for 90 min. After the reaction, the mixture was filtered through a glass fiber filter paper and washed several times with cooled physiological saline, then the radioactivity retained on the filter paper was measured. The specific-binding ratio was calculated by subtracting the non-specific binding ratio which is the radioactivity similarly measured in the presence of 10 μM PGD2 from the total binding. The inhibitory activity of each compound was expressed as the concentration required for 50% inhibition (IC50), which was determined by depicting a substitution curve by plotting the binding ratio (%) in the presence of each compound, where the binding ratio in the absence of a test compound is 100%.

[3] = human platelet membrane fraction, 2 nM [3H](+)-S-145 sodium salt, read-out: Binding activity to TXA2 receptor in human platelet membrane fraction IC50
[4] = human platelet, 0.1 μM PGD2, read-out: Inhibitory activity for the increase of cAMP caused by PGD2 in human platelet IC50
[5] = human platelet membrane fraction, read-out: Binding activity to PGD2 receptor in human platelet membrane fraction IC50

| Compound | pIC50 (TXA2 receptor; [3]) | pIC50 (PGD2 receptor [1]; [4]) | pIC50 (PGD2 receptor [2]; [5]) | pIC50 (PGD2 receptor [2]; comparative experiment in accordance with Experiment 1, read-out: Experiment 1 Antagonistic activity against PGD2 receptor IC50) | pIC50 (TXA2 receptor; comparative experiment in accordance with Experiment 2, read-out: Experiment 2 Antagonistic activity against TXA2 receptor IC50) | pIC50 (PGD2 receptor [1]; comparative experiment in accordance with Experiment 3, read-out: Experiment 3 Antagonistic activity against PGD2 receptor IC50) |
| --- | --- | --- | --- | --- | --- | --- |
| O=C(O)CCCC[C@H]1[C@@H]2CC[C@@H](C2)[C@@H]1NC(=O)c1ccc(Sc2cccs2)s1 [I-5A-59a] | 7.96 | 7.10 |  |  |  |  |
| O=C(O)CCC/C=C\C[C@H]1[C@@H]2CC[C@@H](C2)[C@@H]1NC(=O)c1ccc(Sc2ccsc2)s1 [I-79] | 7.82 | 7.62 | 9.38 |  |  |  |
| O=C(O)CCC/C=C\C[C@H]1[C@@H]2CC[C@@H](C2)[C@@H]1NC(=O)c1ccc(CSc2cccs2)s1 [I-104] | 7.41 | 8.80 | 10.00 |  |  |  |
| O=C(O)CCC/C=C\C[C@H]1[C@@H]2CC[C@@H](C2)[C@@H]1NC(=O)c1cc2ccc(Cc3ccccc3)cc2s1 [I-160] | 7.70 | 7.07 | 7.55 |  |  |  |
| Cc1cc(S(=O)(=O)c2ccc(C(=O)N[C@@H]3[C@@H](C/C=C\CCCC(=O)O)C[C@H]4C[C@@H]3C4(C)C)s2)cs1 [II-101] | 8.40 | 7.35 | 7.14 |  |  |  |
| CC1(C)[C@H]2C[C@H](C/C=C\CCCC(=O)O)[C@@H](NC(=O)c3ccc(S(=O)(=O)c4cccc(O)c4)s3)[C@@H]1C2 [II-117] | 8.59 | 7.62 | 7.66 |  |  |  |
| O=C(O)CCCCCC[C@H]1[C@@H]2CC[C@@H](C2)[C@@H]1NC(=O)c1ccc(Sc2cccs2)s1 [I-7A-59a] | 8.01 | 7.92 |  |  |  |  |
| O=C(O)CCC/C=C\C[C@H]1[C@@H]2CC[C@@H](C2)[C@@H]1NC(=O)c1ccc(Cc2ccccc2)s1 [I-31] | 6.89 | 8.24 | 8.09 |  |  |  |
| CC1(C)[C@H]2C[C@H](C/C=C\CCCC(=O)O)[C@@H](NC(=O)c3ccc(S(=O)(=O)n4cccc4)s3)[C@@H]1C2 [II-1] | 7.92 | 7.96 | 8.70 |  |  |  |
| O=C(O)CCC/C=C\C[C@H]1[C@@H]2CC[C@@H](C2)[C@@H]1NC(=O)c1ccc(SCc2cccs2)cc1 [I-66] | 7.47 | 7.36 | 8.34 |  |  |  |
| COc1ccccc1Cc1ccc(C(=O)N[C@@H]2[C@@H](C/C=C\CCCC(=O)O)C[C@H]3C[C@@H]2C3(C)C)s1 [II-126] | 7.35 | 8.40 | 8.34 |  |  |  |
| O=C(O)CCC/C=C\C[C@H]1[C@@H]2CC[C@@H](C2)[C@@H]1NC(=O)c1ccc(S(=O)(=O)c2cccc(O)c2)s1 [I-117] | 8.42 | 7.33 | 8.04 |  |  |  |
| O=C(O)CCC/C=C\C[C@H]1[C@@H]2CC[C@@H](C2)[C@@H]1NC(=O)c1ccc(Sc2cccs2)s1 [I-59] | 7.80 | 8.34 | 9.39 |  |  |  |
| CC1(C)[C@H]2C[C@H](C/C=C\CCCC(=O)O)[C@@H](NC(=O)c3ccc(S(=O)(=O)c4ccccc4)s3)[C@@H]1C2 [II-37] | 8.37 | 7.46 | 7.59 |  |  |  |
| O=C(O)CCC/C=C\C[C@H]1[C@@H]2CC[C@@H](C2)[C@@H]1NC(=O)c1ccn(S(=O)(=O)c2cccs2)c1 [I-94] | 7.08 | 8.00 | 9.00 |  |  |  |
| O=C(O)CCC/C=C\C[C@H]1[C@@H]2CC[C@@H](C2)[C@@H]1NC(=O)c1ccc(Cc2cc3ccccc3o2)s1 [I-136] | 7.80 | 7.82 | 7.64 |  |  |  |
| Cc1cccc(Cc2ccc(C(=O)N[C@H]3[C@H]4CC[C@H](C4)[C@@H]3C/C=C\CCCC(=O)O)s2)c1 [I-131] | 7.72 | 7.39 | 7.36 |  |  |  |
| O=C(O)CCC/C=C\C[C@H]1[C@@H]2CC[C@@H](C2)[C@@H]1NC(=O)c1ccc(Cc2cccs2)s1 [I-93] | 7.14 | 8.08 | 8.15 |  |  |  |
| O=C(O)CCC/C=C\C[C@H]1[C@@H]2CC[C@@H](C2)[C@@H]1NC(=O)c1ccc(Cc2csc3ccccc23)s1 [I-182] | 7.55 | 7.96 | 7.21 |  |  |  |
| CC1(C)[C@H]2C[C@H](C/C=C\CCCC(=O)O)[C@@H](NC(=O)c3ccc(S(=O)(=O)c4cccs4)s3)[C@@H]1C2 [II-47] | 8.44 | 8.40 | 9.02 |  |  |  |
| Cc1ccc(Cc2ccc(C(=O)N[C@H]3[C@H]4CC[C@H](C4)[C@@H]3C/C=C\CCCC(=O)O)s2)c(C)c1 [I-128] | 7.32 | 8.00 | 7.70 |  |  |  |
| Cc1cccn1S(=O)(=O)c1ccc(C(=O)N[C@@H]2[C@@H](C/C=C\CCCC(=O)O)C[C@H]3C[C@@H]2C3(C)C)s1 [II-55] | 8.36 | 8.41 | 8.82 |  |  |  |
| CC1(C)[C@H]2C[C@H](C/C=C\CCCC(=O)O)[C@@H](NC(=O)c3ccc(Cc4cccc(-c5ccccc5)c4)s3)[C@@H]1C2 [II-138] | 7.14 | 7.60 | 7.49 |  |  |  |
| O=C(O)CCC/C=C\C[C@H]1[C@@H]2CC[C@@H](C2)[C@@H]1NC(=O)c1ccc(Cc2ccc(OCc3ccccc3)c(O)c2)s1 [I-146] | 7.72 | 7.14 | 7.36 |  |  |  |
| CC1(C)[C@H]2C[C@H](C/C=C\CCCC(=O)O)[C@@H](NC(=O)c3csc4ccccc34)[C@@H]1C2 [B-1, reference compound] |  |  |  | 7.66 | 6.43 | 7.52 |
| Cc1ccc(C)n1S(=O)(=O)c1ccc(C(=O)N[C@H]2[C@H]3CC[C@H](C3)[C@@H]2CCCC/C=C/C(=O)O)s1 [I-71-270a] | 9.05 | 7.59 |  |  |  |  |
| COc1ccccc1Cc1ccc(C(=O)N[C@H]2[C@H]3CC[C@H](C3)[C@@H]2CCCC/C=C/C(=O)O)s1 [I-71-126a] | 7.21 | 7.68 |  |  |  |  |
| O=C(O)COCCCC[C@H]1[C@@H]2CC[C@@H](C2)[C@@H]1NC(=O)c1ccc(Sc2cccs2)s1 [I-7M-59a] | 7.40 | 7.62 |  |  |  |  |

From US7084136B2, “Drug composition antagonistic to both PGD2/TXA2 receptors” (Shionogi & Co., Ltd., priority 2000, dated 2006)
